Drawing on ChEMBL document CHEMBL3301458, “MMV Malaria Box hERG screening”, this text covers inhibition for 61 compounds.

A word on the inhibition: it is the relative decrease from the control value, in per cent.

The source made the active and inactive calls. How the calls were made is not given here.

The target in series [1] is T1, hERG (Kv11.1, KCNH2) (Homo sapiens, UniProt Q12809). Nature of the series: in vitro.
Description: MMV: Malaria Box compounds were tested for inhibition of the human ether a go-go related gene (hERG), Kv11.1 channel, using IonWorks 384-well patch clamp electrophysiology at 1.1uM (3 independent assay plates up to 12 cells per concentration).
Series [2] addresses T1, hERG (Kv11.1, KCNH2). Put plainly: in vitro. This is another data set of the same source.
Description: MMV: Malaria Box compounds were tested for inhibition of the human ether a go-go related gene (hERG), Kv11.1 channel, using IonWorks 384-well patch clamp electrophysiology at 11.1uM (3 independent assay plates up to 12 cells per concentration).

T1 sequence (Q12809 whole entry): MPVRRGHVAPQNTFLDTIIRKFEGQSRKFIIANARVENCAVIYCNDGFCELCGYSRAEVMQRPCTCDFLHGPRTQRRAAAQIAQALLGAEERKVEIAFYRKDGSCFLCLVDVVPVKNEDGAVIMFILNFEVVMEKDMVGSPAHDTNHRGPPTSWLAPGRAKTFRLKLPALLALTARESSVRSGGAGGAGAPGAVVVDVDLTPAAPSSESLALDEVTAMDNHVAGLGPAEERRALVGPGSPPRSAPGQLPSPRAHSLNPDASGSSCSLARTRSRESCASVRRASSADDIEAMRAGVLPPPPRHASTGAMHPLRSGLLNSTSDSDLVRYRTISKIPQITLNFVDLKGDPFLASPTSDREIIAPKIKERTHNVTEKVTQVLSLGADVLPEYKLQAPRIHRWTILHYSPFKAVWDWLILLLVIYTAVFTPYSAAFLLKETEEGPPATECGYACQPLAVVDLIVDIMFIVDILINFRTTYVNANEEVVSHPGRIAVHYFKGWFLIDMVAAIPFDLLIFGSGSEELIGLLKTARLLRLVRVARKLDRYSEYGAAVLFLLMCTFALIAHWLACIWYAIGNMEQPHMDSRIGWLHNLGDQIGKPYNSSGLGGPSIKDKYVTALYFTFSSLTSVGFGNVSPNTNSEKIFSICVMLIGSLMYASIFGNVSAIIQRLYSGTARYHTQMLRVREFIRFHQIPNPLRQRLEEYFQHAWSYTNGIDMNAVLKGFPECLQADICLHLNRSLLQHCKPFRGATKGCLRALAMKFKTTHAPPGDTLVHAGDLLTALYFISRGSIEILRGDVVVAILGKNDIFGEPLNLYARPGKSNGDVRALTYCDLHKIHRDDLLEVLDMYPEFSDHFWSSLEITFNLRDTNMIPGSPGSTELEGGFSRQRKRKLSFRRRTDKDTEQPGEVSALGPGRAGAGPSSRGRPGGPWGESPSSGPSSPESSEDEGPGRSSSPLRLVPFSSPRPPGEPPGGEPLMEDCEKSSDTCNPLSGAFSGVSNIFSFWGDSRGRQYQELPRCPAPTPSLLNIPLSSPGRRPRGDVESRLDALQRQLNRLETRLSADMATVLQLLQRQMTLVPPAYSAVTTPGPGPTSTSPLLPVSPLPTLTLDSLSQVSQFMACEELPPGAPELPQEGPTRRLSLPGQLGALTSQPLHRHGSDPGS

On to `CCN1CCCC1CNc1[nH]cnc2c3cc(Cl)ccc3nc1-2` (configuration not stated), for which the inhibition at 1.1 µM in series [1] came to 6%. The inhibition at 11.1 µM in series [2] amounted to 29%.
Consider `COc1ccc2c(c1)C1(Nc3ccccc3-c3nc4ccccc4n31)C(=O)N2` (configuration not stated), for which, in series [1], the inhibition at 1.1 µM was found to be 4%. The inhibition at 11.1 µM in series [2] is 20% (inactive).
Consider `COc1cccc(Cn2c(Oc3ccccc3)nc3c2c(=O)n(C)c(=O)n3C)c1`, for which the inhibition at 1.1 µM in series [1] was -4%. Also, the inhibition at 11.1 µM in series [2] is 26%.
Regarding `N=c1n(CCN2CCCCC2)c2ccccc2n1CC(=O)c1ccc(Cl)c(Cl)c1`, the inhibition at 1.1 µM in series [1] is -13%. For the same compound, in series [2], the inhibition at 11.1 µM was -1% (inactive).
As for `CCOc1cc(CNC(C)C(O)c2ccccc2)cc(Cl)c1OCC` (configuration not stated), in series [1], the inhibition at 1.1 µM worked out at 2%. The inhibition at 11.1 µM in series [2] was 48%.
`C[n+]1c2ccccc2nc2ccc(NCCO)cc21`: the inhibition at 1.1 µM in series [1] was 8%. Besides, in series [2], the inhibition at 11.1 µM is 11% (inactive).
`Nc1nc(Nc2cccc(F)c2)nc2ccccc12`: the inhibition at 1.1 µM in series [1] was 11%. Moreover, the inhibition at 11.1 µM in series [2] was 59% (active).
Regarding `CCOc1c(Cl)cc(CNCC(O)c2ccccc2)cc1OC` (configuration not stated), in series [1], the inhibition at 1.1 µM amounted to 16%. In series [2], the inhibition at 11.1 µM is 66% (active).
For `OC(CNCC1CCCO1)Cn1c2ccc(Cl)cc2c2cc(Cl)ccc21` (configuration not stated), in series [1], the inhibition at 1.1 µM is 12%. In series [2], the inhibition at 11.1 µM is 16% (inactive).
Regarding `COc1ccc2nc(C)cc(Nc3ccccc3O)c2c1`, the inhibition at 1.1 µM in series [1] is 18%. Moreover, the inhibition at 11.1 µM in series [2] is 57% (active).
The corresponding values for `COc1ccc(-c2nc(N3CCN(C(=O)C4CCCCC4)CC3)c3c4c(sc3n2)CCCC4)cc1` are 7% and 17% (inactive).
Take `CCn1nc(-c2ccc(C(=O)OC)cc2)nc2c(=O)n(C)c(=O)nc1-2`: the inhibition at 1.1 µM in series [1] is -2%. The inhibition at 11.1 µM in series [2] was 9% (inactive).
On the same counts, the results for `CCOc1ccccc1CN1CCc2nc3cc(C(C)(C)C)nn3c(O)c2C1` are -1% and 58% (active).
Regarding `O=C(NC1CCN(Cc2ccccc2)CC1)c1cc2nc(-c3ccc(Cl)s3)cc(C(F)(F)F)n2n1`, the inhibition at 1.1 µM in series [1] was 21%. For the same compound, the inhibition at 11.1 µM in series [2] was 60% (active).
Take `Cc1sc(NC(=O)c2ccccc2)c(C(c2cccs2)N2CCN(c3ccccc3)CC2)c1C` (configuration not stated): the inhibition at 1.1 µM in series [1] came to 9%. For the same compound, the inhibition at 11.1 µM in series [2] was 9% (inactive).
`Cc1sc(NC(=O)c2ccco2)c(C(c2cccnc2)N2CCC(Cc3ccccc3)CC2)c1C` (configuration not stated): in series [1], the inhibition at 1.1 µM is -12%. Also, in series [2], the inhibition at 11.1 µM was 9% (inactive).
Turning to `CCOC(=O)c1c(C)n(-c2ccccc2)c2ccc(OC(=O)c3cc(OC)c(OC)c(OC)c3)cc12`, the inhibition at 1.1 µM in series [1] was -6%. Also, the inhibition at 11.1 µM in series [2] is 11% (inactive).
For `COc1cc(C(=O)Nc2nc3c(cc4c5c(cccc53)CC4)s2)cc(OC)c1OC`, the inhibition at 1.1 µM in series [1] was determined as 10%. Besides, the inhibition at 11.1 µM in series [2] is 23% (inactive).
Take `Cc1cc(N2CCCC2)nc(Nc2ccc(NC(=O)CCc3ccccc3)cc2)n1`: in series [1], the inhibition at 1.1 µM is 9%. Further, the inhibition at 11.1 µM in series [2] was 116% (active).
`O=C(NCC(c1ccsc1)N1CCCCCC1)c1ccc(C(F)(F)F)cc1` (configuration not stated): the inhibition at 1.1 µM in series [1] was found to be 50%. Besides, in series [2], the inhibition at 11.1 µM was 94%.
`COc1ccc(-c2cc3c(SCC(=O)Nc4cc(C(F)(F)F)ccc4Cl)nccn3n2)cc1`: in series [1], the inhibition at 1.1 µM was determined as 6%. Moreover, the inhibition at 11.1 µM in series [2] was 17% (inactive).
Turning to `Cc1ccc(-c2cc3c(SCC(=O)Nc4cc(C(F)(F)F)ccc4Cl)nccn3n2)cc1`, the inhibition at 1.1 µM in series [1] was determined as 2%. For the same compound, the inhibition at 11.1 µM in series [2] stood at 29%.
The corresponding values for `Cc1cc(NC(=O)c2cccc(C(F)(F)F)c2)n(-c2nc(-c3ccc4c(c3)OCO4)cs2)n1` are 12% and 6% (inactive).
For the compound `CCN(CC)CCNc1ncnc2c1[nH]c1ccc(Cl)cc12`, the inhibition at 1.1 µM in series [1] is 99%. For the same compound, in series [2], the inhibition at 11.1 µM amounted to 97%.
Take `CN1CCN(c2ncnc3c2[nH]c2ccc(Cl)cc23)CC1`: the inhibition at 1.1 µM in series [1] is 15%. For the same compound, the inhibition at 11.1 µM in series [2] was 92% (active).
On the same counts, the results for `CC1(c2ccccc2)Nc2ccccc2-c2nc3ccccc3n21` (configuration not stated) are -10% and 29%.
In the case of `COc1ccc(CCN2C(=O)c3[nH]nc(-c4cc(Cl)c(C)cc4O)c3C2c2ccccc2F)cc1` (configuration not stated), in series [1], the inhibition at 1.1 µM worked out at 51%. In addition, the inhibition at 11.1 µM in series [2] was 5%.
Regarding `COc1cccc(C2(C)Nc3ccccc3-c3nc4ccccc4n32)c1` (configuration not stated), in series [1], the inhibition at 1.1 µM came out at 10%. Also, the inhibition at 11.1 µM in series [2] was 18% (inactive).
Turning to `N#Cc1nc(Cc2cccc3ccccc23)oc1N1CCN(C(c2ccccc2)c2ccccc2)CC1`, the inhibition at 1.1 µM in series [1] came out at 15%. In series [2], the inhibition at 11.1 µM was 13% (inactive).
In the case of `CC(C)CNC(=O)c1c(N)n(CCc2ccccc2F)c2nc3ccccc3nc12`, the inhibition at 1.1 µM in series [1] was determined as 17%. Further, the inhibition at 11.1 µM in series [2] was -11% (inactive).
With `O=C(NNc1cc(N2CCCC2)nc(N2CCCC2)n1)c1ccccc1`, the inhibition at 1.1 µM in series [1] worked out at 4%. For the same compound, the inhibition at 11.1 µM in series [2] worked out at 35%.
Regarding `CC(C)(C)CC(C)(C)NCC(O)COc1ccc(Cl)cc1Cl` (configuration not stated), the inhibition at 1.1 µM in series [1] came to 8%. Further, in series [2], the inhibition at 11.1 µM was 81% (active).
On the same counts, the results for `CCCCCC(=O)N1c2ccccc2N=C2CC(c3ccc(OC)c(OC)c3)CC(O)=C2C1c1ccc(C(F)(F)F)cc1` (configuration not stated) are 9% and 23% (inactive).
In the case of `CCN1CCN(Cc2ccc(NC(=O)c3cc4ccc5cccnc5c4[nH]3)cc2)CC1`, in series [1], the inhibition at 1.1 µM turned out to be 41%. In series [2], the inhibition at 11.1 µM was 106% (active).
Consider `Cc1ccc(C(=O)c2oc3ccc4c(C)cc(=O)oc4c3c2C)cc1`, for which, in series [1], the inhibition at 1.1 µM is -3%. Further, the inhibition at 11.1 µM in series [2] was 7% (inactive).
The corresponding values for `CCC(O)c1ccc(Br)cc1NC(=O)c1cccc(Cl)c1` (configuration not stated) are 13% and 22% (inactive).
For the compound `CN(C)CCCNCc1ccc(-c2ccc(F)c(Cl)c2)o1`, the inhibition at 1.1 µM in series [1] turned out to be 3%. Further, the inhibition at 11.1 µM in series [2] was 48%.
As for `CC1CN(C(=O)c2sc3ccccc3c2Cl)CC(C)O1` (configuration not stated), the inhibition at 1.1 µM in series [1] came to 4%. For the same compound, the inhibition at 11.1 µM in series [2] is 10% (inactive).
On to `CCC(=O)Nc1nnc(Cc2ccc(OC)c(OC)c2)s1`, for which the inhibition at 1.1 µM in series [1] is -1%. In series [2], the inhibition at 11.1 µM was -7% (inactive).
As to `CC(=O)Nc1nnc(SCc2c(C)cc(C(C)(C)C)cc2C)s1`, the inhibition at 1.1 µM in series [1] was determined as 0%. Further, in series [2], the inhibition at 11.1 µM was 6% (inactive).
The corresponding values for `COc1ccc(-c2cn3c(C(=O)Nc4ccccc4Cl)c(-c4ccccc4)c4c3n2CCCC4)cc1` are 17% and 56% (active).
The corresponding values for `O=C(Nc1ccc(CN2CCOCC2)cc1)c1ccc(-c2cc(Cl)ccc2Cl)o1` are 8% and 88% (active).
Turning to `CCOc1ccc(C2N(C)c3ccccc3N2C)cc1`, in series [1], the inhibition at 1.1 µM came to 2%. In addition, in series [2], the inhibition at 11.1 µM is 7% (inactive).
On to `COc1ccc(C=C2SC(Nc3ccc(F)cc3)=NC2=O)c(OC)c1`, for which, in series [1], the inhibition at 1.1 µM is 44%. In addition, in series [2], the inhibition at 11.1 µM was 96% (active).
Turning to `CCn1c(CN2CCN(Cc3ccccc3)CC2)nc2cc(NC(=O)c3cccs3)ccc21`, the inhibition at 1.1 µM in series [1] turned out to be 71%. Moreover, in series [2], the inhibition at 11.1 µM stood at 100%.
Take `O=C(NC1CCN(Cc2ccccc2)CC1)c1cc(-c2cccnc2)nc2ccc(Cl)cc12`: the inhibition at 1.1 µM in series [1] came out at 18%. Also, in series [2], the inhibition at 11.1 µM was 86% (active).
The corresponding values for `CCN(CC)CCNc1ncnc2c1[nH]c1ccc(Br)cc12` are 91% and 102%.
With `CCOc1ccc(-n2cc(-c3ccccc3)c3c(SCc4cc(C)ccc4C)ncnc32)cc1`, the inhibition at 1.1 µM in series [1] was -10%. Further, the inhibition at 11.1 µM in series [2] is -16% (inactive).
On to `COc1ccccc1NC1=C(N2CCCCC2)C(=O)c2ccccc2C1=O`, for which the inhibition at 1.1 µM in series [1] came out at 4%. Moreover, in series [2], the inhibition at 11.1 µM was 16% (inactive).
The corresponding values for `COc1ccc(-c2nonc2NC(=O)c2cccc(Cl)c2)cc1OC` are 4% and -4% (inactive).
As for `Oc1ccccc1CNCC12CC3CC(CC(C3)C1)C2`, the inhibition at 1.1 µM in series [1] is 20%. The inhibition at 11.1 µM in series [2] is 41%.
For the compound `CNCCCNc1ccnc2cc(Cl)ccc12`, the inhibition at 1.1 µM in series [1] is -1%. Further, the inhibition at 11.1 µM in series [2] was 21% (inactive).
Regarding `COc1cc(-c2nc(-c3ccccc3)c(-c3ccccc3)[nH]2)cc(OC)c1O`, the inhibition at 1.1 µM in series [1] was determined as 11%. Further, the inhibition at 11.1 µM in series [2] was 18% (inactive).
For `COc1ccc(Br)cc1C1Nc2ccc3ccccc3c2C2=C1C(=O)CC(c1ccccc1)C2` (configuration not stated), the inhibition at 1.1 µM in series [1] was -2%. Besides, the inhibition at 11.1 µM in series [2] is 5% (inactive).
On the same counts, the results for `Cc1ccc(-c2nc3ccccc3o2)cc1NCc1cc(Cc2ccccc2)ccc1O` are 11% and 10% (inactive).
As for `CC1CCN(Cc2ccc(NC(=O)c3cc4ccc5cccnc5c4[nH]3)cc2)CC1`, in series [1], the inhibition at 1.1 µM stood at 64%. The inhibition at 11.1 µM in series [2] worked out at 101%.
The corresponding values for `COc1cc(SC)ccc1C(=O)N1CCCC(C)C1` (configuration not stated) are 16% and 8% (inactive).
Take `CC(C)(C)c1ccc(C(=O)Nc2nc3ccccc3s2)cc1`: in series [1], the inhibition at 1.1 µM is -3%. Moreover, in series [2], the inhibition at 11.1 µM is 7% (inactive).
As for `COc1cc(CNCCc2ccc(Cl)cc2)cc(OC)c1O`, the inhibition at 1.1 µM in series [1] is 16%. Further, the inhibition at 11.1 µM in series [2] is 59% (active).
As for `COc1cc2c(cc1OC)C1=NNC(=O)C1=NC(C)(C)C2`, the inhibition at 1.1 µM in series [1] came to 9%. The inhibition at 11.1 µM in series [2] was 11% (inactive).
Regarding `CN(C)c1ccc(N=Cc2ccc(N3CCOCC3)cc2)cc1`, the inhibition at 1.1 µM in series [1] was -6%. In series [2], the inhibition at 11.1 µM was -3% (inactive).
